The values that follow come from US20220064696A1, “TARGET ENGAGEMENT ASSAY FOR RAS PROTEINS” (Promega Corporation, priority 2020, published 2022).

The structures appear in SMILES notation.

Common to all, as to assay type: binding
The target of one assay is T1, KRAS^G12D (Homo sapiens, UniProt P01116, G12D).
T1 construct: expressed in transfected cells; host or cells: HEK293
The assay can be described thus: NanoLuc fusion BRET target engagement assay in cells, tracer JRW-2025. Conditions: HEK293 cells, tracer JRW-2025, FIG. 4. The procedure: (§1) Luminescence was produced from either NanoLuc (Nluc) tagging of KRAS as the BRET donor, or by NanoBiT tagging of KRAS, wherein BRET donor signal originates from KRAS multimeric species in cells. In 96-well plates, 20,000 HEK293 cells per well were transfected with KRAS-Nluc fusions or KRAS-NanoBiT fusions expressed from pFN31K and pFN32K plasmids. Transfections were performed using 3:1 FuGENE HD:plasmid ratios. […] After incubation, NanoBRET-TE substrate solution was added to a final concentration of 1×, and BRET was measured on a Glomax Discover plate reader.
(In general: In BRET a luciferase serves as donor, and the signal depends on an acceptor being close.)

The target in the next assay is T2, KRAS^G12V (Homo sapiens, UniProt P01116, G12V).
T2 construct: expressed in transfected cells; host or cells: HEK293
Described as above. Conditions: HEK293 cells, tracer JRW-2025, FIG. 4. On the procedure:
as §1

Another assay deals with T3, KRAS (Homo sapiens, UniProt P01116).
T3 construct: expressed in transfected cells; host or cells: HEK293
The assay is described as above. Particulars: HEK293 cells, wild-type KRAS-NanoLuc fusion, tracer JRW-2025, FIG. 4. On the procedure: as §1

Another assay concerns the target T4, KRAS^G12C (Homo sapiens, UniProt P01116, G12C).
T4 construct: expressed in transfected cells; host or cells: HEK293
The description is as above. Particulars: HEK293 cells, tracer JRW-2025, FIG. 4. On the procedure: as §1

A further assay deals with T5, KRAS2B(G12V) (Homo sapiens, UniProt P01116, G12V).
T5 construct: expressed in transfected cells; host or cells: HEK293
Description: Target engagement at KRAS(G12V) homomultimeric complexes, NanoBiT oligomer configuration with SmBiT tag. Conditions: live HEK293 cells, LgBiT-KRAS2B(G12V) and SmBiT-KRAS2B(G12V), FIG. 5. The procedure: To explore this concept, the NanoBiT™ Technology was used to observe KRAS multimeric (e.g., dimer) complexes by NanoBiT tagging of KRAS, wherein BRET donor signal originates from an oligomeric KRAS. In a tissue culture flask, HEK293 cells per well were transfected with KRAS-NanoBiT fusions, LgBiT-KRAS2B(G12V) and SmBiT-KRAS2B(G12V) expressed from pNB3K or pNB4K plasmids along with pGEM-3Z carrier DNA (1:1:8 ratio by mass). Transfections were performed using 3:1 FuGENE HD:plasmid ratios. 24 hours post transfection, cells were treated with compound JRW-2192 and BI-2852.
(§2) After incubation in live cells, NanoBRET-TE substrate solution was added to a final concentration of 1×, and BRET was measured on a Glomax Discover plate reader.

The target of assay [1] is T6, KRAS2B(G12C) (Homo sapiens, UniProt P01116, G12C).
T6 construct: expressed in transfected cells; host or cells: HEK293
The assay can be described thus: Target engagement at KRAS(G12C) homomultimeric complexes, NanoBiT oligomer configuration with SmBiT tag. Particulars: LgBiT-KRAS2B(G12C) and SmBiT-KRAS2B(G12C). On the procedure: To explore this concept, the NanoBiT™ Technology was used to observe KRAS multimeric (e.g., dimer) complexes by NanoBiT tagging of KRAS, wherein BRET donor signal originates from an oligomeric KRAS. In a tissue culture flask, HEK293 cells per well were transfected with KRAS-NanoBiT fusions, LgBiT-KRAS2B(G12C) and SmBiT-KRAS2B(G12C) expressed from pNB3K or pNB4K plasmids along with pGEM-3Z carrier DNA (1:1:8 ratio by mass). Transfections were performed using 3:1 FuGENE HD:plasmid ratios. 24 hours post transfection, cells were treated with compound JRW-2220 and BI-2852.
as §2
The assay was also performed in digitonin permeabilized cells.

For assay [2], the target named is T6, KRAS2B(G12C). The assay can be described thus: KRAS(G12C) homomultimeric complexes, NanoBiT oligomer configuration with HiBiT tag. Conditions: LgBiT-KRAS2B(G12C) and HiBiT-KRAS2B(G12C). The procedure: To explore this concept, the NanoBiT™ Technology was used to form KRAS multimeric (e.g., dimer) complexes by NanoBiT tagging of KRAS, wherein BRET donor signal originates from an oligomeric KRAS. In a tissue culture flask, HEK293 cells per well were transfected with KRAS-NanoBiT fusions, LgBiT-KRAS2B(G12C) and HiBiT-KRAS2B(G12C) expressed from pNB3K or pFN38A plasmids along with pGEM-3Z carrier DNA (1:1:8 ratio by mass). Transfections were performed using 3:1 FuGENE HD:plasmid ratios. 24 hours post transfection, cells were treated with compound JRW-2220 and BI-2852.
as §2
The assay was also performed in digitonin permeabilized cells. Even after permeabilization, donor signal levels remained significant due to the use of the HiBiT tag, facilitating measurement of target engagement.
A general note: The HiBiT peptide binds its large partner to form an active luciferase.

Turning to `C=CC(=O)N1CCN(c2ncnc3c(F)c(-c4c(O)cccc4F)c(Cl)cc23)CC1` [ARS-1620], the “competition with the KRAS binding agent (BRET)” value is on record as “only observed for the KRAS^G12C mutant” on KRAS^G12D, “only observed for the KRAS^G12C mutant” on KRAS^G12V, “only observed for the KRAS^G12C mutant” on KRAS and “competition was only observed for the KRAS^G12C mutant” on KRAS^G12C.
For `O=C(CCc1ccc2n1[B-](F)(F)[N+]1=C(c3ccc[nH]3)C=CC1=C2)NCCOCCOCCOCCOCCC(=O)NCc1cccc(Cn2ccc3ccc(CNCc4[nH]c5ccccc5c4C4NC(=O)c5ccc(O)cc54)cc32)c1` (stereo not drawn) [JRW-2192, 1-(3-(5,5-difluoro-7-(1H-pyrrol-2-yl)-5H-5λ^4,6λ^4-dipyrrolo[1,2-c:2′,1′-f][1,3,2]diazaborinin-3-yl)propanamido)-N-(3-((6-((((3-(6-hydroxy-3-oxoisoindolin-1-yl)-1H-indol-2-yl)methyl)amino)methyl)-1H-indol-1-yl)methyl)benzyl)-3,6,9,12-tetraoxapentadecan-15-amide], the “BRET signal with increasing concentrations of the tracer” value on KRAS2B(G12V) was “dose-dependent increase in the BRET signal”.
Consider `O=C(CCOCCOCCOCCOCCNC(=O)CCc1ccc2n1[B-](F)(F)[N+]1=C(c3ccc[nH]3)C=CC1=C2)NCCCn1cnc(Cn2ccc3ccc(CNCc4[nH]c5ccccc5c4C4NC(=O)c5ccc(O)cc54)cc32)c1` (stereo not drawn) [JRW-2220, 1-(3-(5,5-difluoro-7-(1H-pyrrol-2-yl)-5H-5λ^4,6λ^4-dipyrrolo[1,2-c:2′,1′-f][1,3,2]diazaborinin-3-yl)propanamido)-N-(3-(4-((6-((((3-(6-hydroxy-3-oxoisoindolin-1-yl)-1H-indol-2-yl)methyl)amino)methyl)-1H-indol-1-yl)methyl)-1H-imidazol-1-yl)propyl)-3,6,9,12-tetraoxapentadecan-15-amide], for which the “BRET signal with increasing concentrations of the tracer” value at KRAS2B(G12C) [1] (digitonin permeabilized HEK293 cells, FIG. 7) is “dose-dependent increase in the BRET signal”; at KRAS2B(G12C) [1] (live HEK293 cells, FIG. 6), “dose-dependent increase in the BRET signal”; on KRAS2B(G12C) [2] (digitonin permeabilized HEK293 cells, FIG. 9), “dose-dependent increase in the BRET signal”; at KRAS2B(G12C) [2] (live HEK293 cells, FIG. 8), “dose-dependent increase in the BRET signal”.
